Test results taken from PubChem BioAssay (NCI).
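In this assay, cells in 96-well plates receive the compound at five concentrations for 48 hours. Endpoints are linearly interpolated between the surrounding concentrations. GI50 is the concentration that inhibits growth by half. Definition used: TGI = concentration required for complete inhibition of growth.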

Columns and labels:
Assay in all cases: DTP human tumour cell line panel, 48 h
CCRF-CEM leukemia = tested on: CCRF-CEM leukemia
OVCAR-3 ovarian = tested on: OVCAR-3 ovarian
LOX IMVI melanoma = tested on: LOX IMVI melanoma
NCI-H522 lung = tested on: NCI-H522 lung
OVCAR-4 ovarian = tested on: OVCAR-4 ovarian
MALME-3M melanoma = tested on: MALME-3M melanoma
SK-MEL-28 melanoma = tested on: SK-MEL-28 melanoma
NCI-H23 lung = tested on: NCI-H23 lung
NCI-H460 lung = tested on: NCI-H460 lung
SK-MEL-5 melanoma = tested on: SK-MEL-5 melanoma
HT29 colon = tested on: HT29 colon
MDA-MB-231 breast = tested on: MDA-MB-231 breast
HOP-92 NSCLC = tested on: HOP-92 NSCLC
SF-295 CNS = tested on: SF-295 CNS
MOLT-4 leukemia = tested on: MOLT-4 leukemia
SNB-19 CNS = tested on: SNB-19 CNS
RPMI-8226 leukemia = tested on: RPMI-8226 leukemia
BT-549 breast = tested on: BT-549 breast
IGROV1 ovarian = tested on: IGROV1 ovarian
RXF 393 renal = tested on: RXF 393 renal
UACC-257 melanoma = tested on: UACC-257 melanoma
MDA-MB-435 = tested on: MDA-MB-435
EKVX NSCLC = tested on: EKVX NSCLC
COLO 205 colon = tested on: COLO 205 colon
SK-OV-3 ovarian = tested on: SK-OV-3 ovarian
OVCAR-5 ovarian = tested on: OVCAR-5 ovarian
SN12C renal = tested on: SN12C renal
SF-539 CNS = tested on: SF-539 CNS
KM12 colon = tested on: KM12 colon
HCT-15 colon = tested on: HCT-15 colon
U251 CNS = tested on: U251 CNS
OVCAR-8 ovarian = tested on: OVCAR-8 ovarian
M14 melanoma = tested on: M14 melanoma
MCF7 breast = tested on: MCF7 breast
SF-268 CNS = tested on: SF-268 CNS
SW-620 colon = tested on: SW-620 colon
K-562 leukemia = tested on: K-562 leukemia
UO-31 renal = tested on: UO-31 renal
TK-10 renal = tested on: TK-10 renal
PC-3 prostate = tested on: PC-3 prostate
HCC-2998 colon = tested on: HCC-2998 colon
HL-60(TB) leukemia = tested on: HL-60(TB) leukemia
DU-145 prostate = tested on: DU-145 prostate
ACHN renal = tested on: ACHN renal
SR leukemia = tested on: SR leukemia
NCI-H226 lung = tested on: NCI-H226 lung
HCT-116 colon = tested on: HCT-116 colon
SNB-75 CNS = tested on: SNB-75 CNS
HOP-62 NSCLC = tested on: HOP-62 NSCLC
HS 578T breast = tested on: HS 578T breast
UACC-62 melanoma = tested on: UACC-62 melanoma
A498 renal = tested on: A498 renal
786-0 renal = tested on: 786-0 renal
SK-MEL-2 melanoma = tested on: SK-MEL-2 melanoma
NCI/ADR-RES ovarian = tested on: NCI/ADR-RES ovarian
A549 NSCLC = tested on: A549 NSCLC
CAKI-1 renal = tested on: CAKI-1 renal
T-47D breast = tested on: T-47D breast

Cc1ccc(-c2cc3c(NC(=O)C4CC4)ncnc3o2)cc1
GI50 (CCRF-CEM leukemia): > 25 µM | TGI (CCRF-CEM leukemia): > 25 µM | GI50 (OVCAR-3 ovarian): > 25 µM | TGI (OVCAR-3 ovarian): > 25 µM | GI50 (LOX IMVI melanoma): > 25 µM | TGI (LOX IMVI melanoma): > 25 µM | GI50 (NCI-H522 lung): > 25 µM | TGI (NCI-H522 lung): > 25 µM | GI50 (OVCAR-4 ovarian): > 25 µM | TGI (OVCAR-4 ovarian): > 25 µM | GI50 (MALME-3M melanoma): > 25 µM | TGI (MALME-3M melanoma): > 25 µM | GI50 (SK-MEL-28 melanoma): > 25 µM | TGI (SK-MEL-28 melanoma): > 25 µM | GI50 (NCI-H23 lung): > 25 µM | TGI (NCI-H23 lung): > 25 µM | GI50 (NCI-H460 lung): > 25 µM | TGI (NCI-H460 lung): > 25 µM | GI50 (SK-MEL-5 melanoma): > 25 µM | TGI (SK-MEL-5 melanoma): > 25 µM | GI50 (HT29 colon): > 25 µM | TGI (HT29 colon): > 25 µM | GI50 (MDA-MB-231 breast): > 25 µM | TGI (MDA-MB-231 breast): > 25 µM | GI50 (HOP-92 NSCLC): > 25 µM | TGI (HOP-92 NSCLC): > 25 µM | GI50 (SF-295 CNS): > 25 µM | TGI (SF-295 CNS): > 25 µM | GI50 (MOLT-4 leukemia): > 25 µM | TGI (MOLT-4 leukemia): > 25 µM | GI50 (SNB-19 CNS): > 25 µM | TGI (SNB-19 CNS): > 25 µM | GI50 (RPMI-8226 leukemia): > 25 µM | TGI (RPMI-8226 leukemia): > 25 µM | GI50 (BT-549 breast): > 25 µM | TGI (BT-549 breast): > 25 µM | GI50 (IGROV1 ovarian): > 25 µM | TGI (IGROV1 ovarian): > 25 µM | GI50 (RXF 393 renal): > 25 µM | TGI (RXF 393 renal): > 25 µM | GI50 (UACC-257 melanoma): > 25 µM | TGI (UACC-257 melanoma): > 25 µM | GI50 (MDA-MB-435): > 25 µM | TGI (MDA-MB-435): > 25 µM | GI50 (EKVX NSCLC): > 21.3 µM | TGI (EKVX NSCLC): > 25 µM | GI50 (COLO 205 colon): > 25 µM | TGI (COLO 205 colon): > 25 µM | GI50 (SK-OV-3 ovarian): > 25 µM | TGI (SK-OV-3 ovarian): > 25 µM | GI50 (OVCAR-5 ovarian): > 25 µM | TGI (OVCAR-5 ovarian): > 25 µM | GI50 (SN12C renal): > 25 µM | TGI (SN12C renal): > 25 µM | GI50 (SF-539 CNS): > 25 µM | TGI (SF-539 CNS): > 25 µM | GI50 (KM12 colon): > 25 µM | TGI (KM12 colon): > 25 µM | GI50 (HCT-15 colon): > 25 µM | TGI (HCT-15 colon): > 25 µM | GI50 (U251 CNS): > 25 µM | TGI (U251 CNS): > 25 µM | GI50 (OVCAR-8 ovarian): > 25 µM | TGI (OVCAR-8 ovarian): > 25 µM | GI50 (M14 melanoma): > 25 µM | TGI (M14 melanoma): > 25 µM | GI50 (MCF7 breast): > 25 µM | TGI (MCF7 breast): > 25 µM | GI50 (SF-268 CNS): > 25 µM | TGI (SF-268 CNS): > 25 µM | GI50 (SW-620 colon): > 25 µM | TGI (SW-620 colon): > 25 µM | GI50 (K-562 leukemia): > 25 µM | TGI (K-562 leukemia): > 25 µM | GI50 (UO-31 renal): > 25 µM | TGI (UO-31 renal): > 25 µM | GI50 (TK-10 renal): > 25 µM | TGI (TK-10 renal): > 25 µM | GI50 (PC-3 prostate): > 25 µM | TGI (PC-3 prostate): > 25 µM | GI50 (HCC-2998 colon): > 25 µM | TGI (HCC-2998 colon): > 25 µM | GI50 (HL-60(TB) leukemia): > 25 µM | TGI (HL-60(TB) leukemia): > 25 µM | GI50 (DU-145 prostate): > 25 µM | TGI (DU-145 prostate): > 25 µM | GI50 (ACHN renal): > 25 µM | TGI (ACHN renal): > 25 µM | GI50 (SR leukemia): > 25 µM | TGI (SR leukemia): > 25 µM | GI50 (NCI-H226 lung): > 25 µM | TGI (NCI-H226 lung): > 25 µM | GI50 (HCT-116 colon): > 25 µM | TGI (HCT-116 colon): > 25 µM | GI50 (SNB-75 CNS): 24.2 µM | TGI (SNB-75 CNS): > 25 µM | GI50 (HOP-62 NSCLC): > 25 µM | TGI (HOP-62 NSCLC): > 25 µM | GI50 (HS 578T breast): > 25 µM | TGI (HS 578T breast): > 25 µM | GI50 (UACC-62 melanoma): > 25 µM | TGI (UACC-62 melanoma): > 25 µM | GI50 (A498 renal): > 25 µM | TGI (A498 renal): > 25 µM | GI50 (786-0 renal): > 25 µM | TGI (786-0 renal): > 25 µM | GI50 (SK-MEL-2 melanoma): > 25 µM | TGI (SK-MEL-2 melanoma): > 25 µM | GI50 (NCI/ADR-RES ovarian): > 25 µM | TGI (NCI/ADR-RES ovarian): > 25 µM | GI50 (A549 NSCLC): > 25 µM | TGI (A549 NSCLC): > 25 µM | GI50 (CAKI-1 renal): > 25 µM | TGI (CAKI-1 renal): > 25 µM | GI50 (T-47D breast): > 25 µM | TGI (T-47D breast): > 25 µM
